Results taken from ChEMBL document CHEMBL1201862, “PubChem BioAssay data set” (2004).
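Results reflect a 48-hour exposure of cells in 96-well plates to compound at five concentrations. At the GI50, growth is halved.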 Active and inactive are the calls of the source. No stated cut-off is given here; in the data, active = GI50 up to about 1.1 µM and inactive = higher.

Key:
Test in all cases: NCI anticancer screen, dose series, 48 h
[1] = test system: KM12
[2] = test system: 786-0
[3] = test system: DLD-1
[4] = test system: SNB-19
[5] = test system: EKVX
[6] = test system: COLO 205
[7] = test system: MOLT-4
[8] = test system: SK-MEL-2
[9] = test system: OVCAR-8
[10] = test system: A498
[11] = test system: OVCAR-3
[12] = test system: SF-295
[13] = test system: CAKI-1
[14] = test system: M14
[15] = test system: HL-60
[16] = test system: OVCAR-5
[17] = test system: SW-620

Measured: GI50

CN(C)C(=O)OC(Cn1cncn1)c1ccc(Cl)cc1Cl (configuration not stated)
inactive: [1] > 100 µM | [2] > 100 µM | [3] > 100 µM | [4] > 100 µM | [5] > 100 µM | [6] > 100 µM | [7] > 100 µM | [8] > 100 µM | [9] > 100 µM | [10] > 100 µM | [11] > 100 µM | [12] > 100 µM | [13] > 100 µM | [14] > 100 µM | [15] > 100 µM | [16] > 100 µM | [17] > 100 µM

COc1ccc(/C=C2\CN(C)Cc3c2nc(N)nc3-c2ccc(OC)cc2)cc1
inactive: [1] 61.2 µM | [2] > 100 µM | [3] 57 µM | [4] > 100 µM | [5] 33.6 µM | [6] 95.7 µM | [7] 30.1 µM | [8] 83.4 µM | [9] 49.3 µM | [10] > 100 µM | [11] > 100 µM | [12] > 100 µM | [13] > 100 µM | [14] 69.3 µM | [15] 28.7 µM | [16] > 100 µM | [17] 57.4 µM

O=C1C(Cl)C(c2ccc(O)cc2)N1n1cnc2ccccc2c1=O (configuration not stated)
inactive: [1] 51.1 µM | [2] 28.8 µM | [3] 19.1 µM | [4] > 100 µM | [5] 29.7 µM | [6] 25.3 µM | [7] 25.6 µM | [8] 26.9 µM | [9] 16.1 µM | [10] > 100 µM | [11] 32 µM | [12] 98.4 µM | [13] 31.5 µM | [14] 30.5 µM | [15] 24.5 µM | [16] > 79.8 µM | [17] 22.5 µM

CC(=O)OC1COC(N2C(=O)C(=O)c3c(C)cc(Cl)nc32)C(OC(C)=O)C1OC(C)=O (configuration not stated)
inactive: [1] > 100 µM | [2] > 100 µM | [3] > 100 µM | [4] > 100 µM | [5] > 100 µM | [6] > 100 µM | [7] > 100 µM | [8] > 100 µM | [9] > 100 µM | [10] > 100 µM | [11] > 100 µM | [12] > 100 µM | [13] > 100 µM | [14] > 100 µM | [15] > 100 µM | [16] > 100 µM | [17] > 100 µM

NC(=O)N1N=C2c3ccccc3CC[C@@H]2C1c1ccccc1 (some centres not stated)
inactive: [1] > 100 µM | [2] > 100 µM | [3] > 100 µM | [4] > 100 µM | [5] > 100 µM | [6] > 100 µM | [7] 69 µM | [8] > 100 µM | [9] > 100 µM | [10] > 100 µM | [11] > 100 µM | [12] > 100 µM | [13] > 100 µM | [14] > 100 µM | [15] 42.9 µM | [16] > 100 µM | [17] > 100 µM

CCCC1(CC(=O)O)OCCc2c1[nH]c1ccccc21 (configuration not stated) [PRODOLIC ACID]
inactive: [1] > 100 µM | [2] > 100 µM | [3] > 100 µM | [4] > 100 µM | [5] > 100 µM | [6] > 100 µM | [7] > 100 µM | [8] > 100 µM | [9] > 100 µM | [10] > 100 µM | [11] > 100 µM | [12] > 100 µM | [13] > 100 µM | [14] > 100 µM | [15] > 100 µM | [16] > 100 µM | [17] > 100 µM
